This is an account of results in US20260167615A1, “COMPOUNDS AND COMPOSITIONS AS GPR52 MODULATORS” (Neurocrine Biosciences, Inc., priority 2022, published 2026).

By EC50 is commonly meant the concentration at which the effect is half-maximal. As usually defined, the Emax is the maximal effect, on the per cent scale that the assay sets.

Data set [1] in a line: Stability in mammalian liver microsomes (Example D). The data set is classed as in vitro ADME. The conditions noted are these: human liver microsomes 0.5 mg/mL, 0.5 μM compound, 37° C.; scaled from in vitro half-life (Obach method); linker comparators. How it is done:
Compounds of Formula I were assessed for their stability in mammalian liver microsomes. A compound of Formula I (0.5 μM) was incubated with pooled mixed gender human liver microsomes (HLM) (0.5 mg/mL total protein) at 37° C. in the presence of an NADPH-generating system containing 50 mM, pH 7.4 potassium phosphate buffer, 3 mM magnesium chloride, 1 mM EDTA, 1 mM NADP, 5 mM glusose-6-phosphate, and 1 Unit/mL glucose-6-phosphate dehydrogenase. All concentrations were relative to the final incubation volume of 125 μL. Incubations were conducted at 37° C. for 0, 5, 10, 20, 40 and 60 minutes in a water bath and terminated by rapid mixing with 150 μL of ice-cold acetonitrile containing internal standard, and precipitated proteins were removed by centrifugation prior to LC-MS/MS analysis. Aliquots of the resulting supernatant fractions were analyzed by LC-MS/MS monitoring for depletion of parent compound. The resultant peak area ratio versus time data was fitted to a non-linear regression using XLfit Scientific Curve Fitting Software (IDBS Ltd., Surrey, UK) and half-life was calculated from the slope. Pharmacokinetic parameters were predicted using the method described by Obach et al (J. Pharmcol. Exp. Ther. 1997; 283:46.58). Briefly, values for intrinsic clearance were calculated from the in vitro half-life data and were then scaled to represent the clearance expected in the entire animal (human). Additional values calculated included predicted extraction ratio and predicted maximum bioavailability. For example, the O-linker has better metabolic stability relative to the methyl linker or the —CH2O-linker, as shown by the following comparators

Data set [2] has as its target recombinant human GPR52 (Homo sapiens, UniProt Q9Y2T5). Nature of the data set: HTRF cAMP assay, GPR52 activity (Example A). It is filed as cell-based. The conditions noted are these: for Emax: maximum cAMP at 10 μM or 31.6 μM test compound, as percentage of Emax of control compound 4-(3-(3-fluoro-5-(trifluoromethyl)benzyl)-5-methyl-4,5-dihydro-1H-1,2,4-triazol-1-yl)-2-methylbenzamide. The gist of the method:
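Flp-In CHO cells stably expressing human GPR52 (20,000/well) incubated 30 min at room temperature with compound, cAMP then quantified by competitive HTRF. EC50 from nonlinear fits of cAMP-transformed data normalized to positive control; Emax is top plateau at 10 or 31.6 μM, given as % of a reference agonist's Emax.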
A general note: Time-resolved FRET reads energy transfer from a long-lived donor to a nearby acceptor.

The mark [3] stands for this setting: average EC50 (n=1 to 15), Flp-In-CHO cells stably expressing recombinant human GPR52, cAMP HTRF, read-out: EC50 (N=).

Read-outs that look alike come from different tables or passages of the source.

Sequence of recombinant human GPR52 (Q9Y2T5 whole entry): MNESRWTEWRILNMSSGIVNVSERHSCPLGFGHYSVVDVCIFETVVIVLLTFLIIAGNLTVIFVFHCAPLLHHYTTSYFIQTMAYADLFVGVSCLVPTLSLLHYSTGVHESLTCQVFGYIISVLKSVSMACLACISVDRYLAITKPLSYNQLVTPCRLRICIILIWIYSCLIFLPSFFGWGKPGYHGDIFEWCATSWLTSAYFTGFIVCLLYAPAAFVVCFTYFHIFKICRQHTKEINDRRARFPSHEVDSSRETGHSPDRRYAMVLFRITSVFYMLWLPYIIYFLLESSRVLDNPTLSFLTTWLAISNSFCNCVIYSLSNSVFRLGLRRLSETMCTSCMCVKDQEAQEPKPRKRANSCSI

Take `Cc1cc(-c2cc(Cc3ccc4cnn(C)c4c3)ccn2)ccc1C(N)=O`: in data set [1], the “Metabolic stability - predicted systemic clearance” value is “Metabolic stability - predicted systemic clearance (example D, above) is 11.3 ml/min/kg”. Regarding `Cc1cc(-c2cc(COc3ccc4c(cnn4C)c3)ccn2)ccc1C(N)=O`, in data set [1], the “Metabolic stability - predicted systemic clearance” value is “Metabolic stability - predicted systemic clearance (example D, above) is 12.3 ml/min/kg”. As for `CCc1cc(-c2cc(Oc3cnc4c(C(F)(F)F)cccc4c3)ccn2)ccc1C(N)=O` [Example 109, 2-ethyl-4-(4-((8-(trifluoromethyl)quinolin-3-yl)oxy)pyridin-2-yl)benzamide], the EC50 in data set [2] (setting [3]) was 0.101 to 1 µM. Also, the maximal effect (Emax) in data set [2] was 75%. Regarding `CCc1cc(-c2cc(Oc3cnc4ccc(Cl)cc4c3)ccn2)ccc1C(N)=O` [Example 110, 4-(4-((6-chloroquinolin-3-yl)oxy)pyridin-2-yl)-2-ethylbenzamide], the concentration giving a half-maximal response (EC50) in data set [2] (setting [3]) lay in the range of 0.101 to 1 µM. Moreover, the Emax in data set [2] came out at 137%.

With `Cc1cc(-c2cc(Oc3cnc4ccc(Cl)cc4c3)ccn2)ccc1C(N)=O` [Example 111, 4-(4-((6-chloroquinolin-3-yl)oxy)pyridin-2-yl)-2-methylbenzamide], the EC50 in data set [2] (setting [3]) was 0.101 to 1 µM. For the same compound, in data set [2], the Emax came to 88%. Turning to `CCc1cc(-c2cc(Oc3cnc4c(Cl)cccc4c3)ccn2)ccc1C(N)=O` [Example 112, 4-(4-((8-chloroquinolin-3-yl)oxy)pyridin-2-yl)-2-ethylbenzamide], the EC50 in data set [2] (setting [3]) was in the range of 0.101 to 1 µM. Also, the Emax in data set [2] is 100%. In the case of `CCc1cc(-c2cc(Oc3cnc4cc(F)c(F)cc4c3)ccn2)ccc1C(N)=O` [Example 113, 4-(4-((6,7-difluoroquinolin-3-yl)oxy)pyridin-2-yl)-2-ethylbenzamide], the EC50 in data set [2] (setting [3]) lay within 0.101 to 1 µM. Further, the Emax in data set [2] worked out at 95%. The corresponding values for `Cc1cc(-c2cc(Oc3cnc4cc(F)c(F)cc4c3)ccn2)ccc1C(N)=O` [Example 114, 4-(4-((6,7-difluoroquinolin-3-yl)oxy)pyridin-2-yl)-2-methylbenzamide] are 0.025 to 0.1 µM and 50%. Take `CCc1cc(-c2cc(Oc3cnc4c(F)c(F)ccc4c3)ccn2)ccc1C(N)=O` [Example 115, 4-(4-((7,8-difluoroquinolin-3-yl)oxy)pyridin-2-yl)-2-ethylbenzamide]: the EC50 in data set [2] (setting [3]) lay in the range of 0.101 to 1 µM. Besides, the Emax in data set [2] came to 100%. The corresponding values for `Cc1cc(-c2cc(Oc3cnc4c(F)c(F)ccc4c3)ccn2)ccc1C(N)=O` [Example 116, 4-(4-((7,8-difluoroquinolin-3-yl)oxy)pyridin-2-yl)-2-methylbenzamide] are 0.025 to 0.1 µM and 62%. Take `CCc1cc(-c2cc(Oc3cnc4c(F)cc(F)cc4c3)ccn2)ccc1C(N)=O` [Example 117, 4-(4-((6,8-difluoroquinolin-3-yl)oxy)pyridin-2-yl)-2-ethylbenzamide]: in data set [2] (setting [3]), the EC50 lay in the range of 0.101 to 1 µM. For the same compound, the Emax in data set [2] was determined as 115%.

On to `Cc1cc(-c2cc(Oc3cnc4c(F)cc(F)cc4c3)ccn2)ccc1C(N)=O` [Example 118, 4-(4-((6,8-difluoroquinolin-3-yl)oxy)pyridin-2-yl)-2-methylbenzamide], for which, in data set [2] (setting [3]), the EC50 was in the range of 0.101 to 1 µM. In data set [2], the Emax was 85%. In the same order, the values of `Cc1cc(-c2cc(Oc3cc(F)c4ncc(F)cc4c3)ccn2)ccc1C(N)=O` [Example 119, 4-(4-((3,8-difluoroquinolin-6-yl)oxy)pyridin-2-yl)-2-methylbenzamide] are 0.101 to 1 µM and 120%. As for `CCc1cc(-c2cc(Oc3cc(F)c4ncc(F)cc4c3)ccn2)ccc1C(N)=O` [Example 120, 4-(4-((3,8-difluoroquinolin-6-yl)oxy)pyridin-2-yl)-2-ethylbenzamide], the EC50 in data set [2] (setting [3]) was 0.101 to 1 µM. Besides, the Emax in data set [2] is 155%. Consider `Cc1cc(-c2cc(Oc3cnc4c(c3)C=C(F)CC4)ccn2)ccc1C(N)=O` [Example 121, 4-(4-((6-fluoro-7,8-dihydroquinolin-3-yl)oxy)pyridin-2-yl)-2-methylbenzamide], for which the EC50 in data set [2] (setting [3]) lay within 1 to 2 µM. In addition, the Emax in data set [2] turned out to be 78%. Regarding `CCc1cc(-c2cc(Oc3cnc4c(c3)C=C(F)CC4)ccn2)ccc1C(N)=O` [Example 122, 2-ethyl-4-(4-((6-fluoro-7,8-dihydroquinolin-3-yl)oxy)pyridin-2-yl)benzamide], in data set [2] (setting [3]), the EC50 was 0.101 to 1 µM. In data set [2], the maximal effect (Emax) is 121%.

Regarding `CCc1cc(-c2cc(Oc3cnc4c(c3)CCCO4)ccn2)ccc1C(N)=O` [Example 123, 4-(4-((3,4-dihydro-2H-pyrano[2,3-b]pyridin-6-yl)oxy)pyridin-2-yl)-2-ethylbenzamide], the EC50 in data set [2] (setting [3]) is 0.101 to 1 µM. The Emax in data set [2] came out at 88%. In the case of `Cc1cc(-c2cc(Oc3ccc4ncncc4c3)ccn2)ccc1C(N)=O` [Example 124, 2-methyl-4-(4-(quinazolin-6-yloxy)pyridin-2-yl)benzamide], the EC50 in data set [2] (setting [3]) lay in the range of 1 to 2 µM. In data set [2], the Emax came out at 100%. `CCc1cc(-c2cc(Oc3ccc4nccnc4c3)ccn2)ccc1C(N)=O` [Example 125, 2-ethyl-4-(4-(quinoxalin-6-yloxy)pyridin-2-yl)benzamide]: in data set [2] (setting [3]), the EC50 is 0.101 to 1 µM. Moreover, in data set [2], the Emax is 90%. With `Cc1cc(-c2cc(Oc3cnc4c(c3)c(F)nn4C)ccn2)ccc1C(N)=O` [Example 126, 4-(4-((3-fluoro-1-methyl-1H-pyrazolo[3,4-b]pyridin-5-yl)oxy)pyridin-2-yl)-2-methylbenzamide], in data set [2] (setting [3]), the EC50 was in the range of 0.101 to 1 µM. Further, the Emax in data set [2] came to 103%. The corresponding values for `Cc1cc(-c2cc(Oc3cnc4c(F)nn(C)c4c3)ccn2)ccc1C(N)=O` [Example 127, 4-(4-((3-fluoro-1-methyl-1H-pyrazolo[4,3-b]pyridin-6-yl)oxy)pyridin-2-yl)-2-methylbenzamide] are 0.101 to 1 µM and 116%. Consider `Cc1cc(-c2cc(Oc3ccc4c(F)nn(C)c4c3)ccn2)ccc1C(N)=O` [Example 128, 4-(4-((3-fluoro-1-methyl-1H-indazol-6-yl)oxy)pyridin-2-yl)-2-methylbenzamide], for which the EC50 in data set [2] (setting [3]) was in the range of 0.025 to 0.1 µM. The Emax in data set [2] was 118%. For the compound `Cc1cc(-c2cc(Oc3ccc4c(c3)c(F)nn4C)ccn2)ccc1C(N)=O` [Example 129, 4-(4-((3-fluoro-1-methyl-1H-indazol-5-yl)oxy)pyridin-2-yl)-2-methylbenzamide], the EC50 in data set [2] (setting [3]) was in the range of 0.101 to 1 µM. For the same compound, the Emax in data set [2] was 126%.

Regarding `CCc1cc(-c2cc(Oc3cnc4c(c3)c(F)nn4C)ccn2)ccc1C(N)=O` [Example 130, 2-ethyl-4-(4-((3-fluoro-1-methyl-1H-pyrazolo[3,4-b]pyridin-5-yl)oxy)pyridin-2-yl)benzamide], the EC50 in data set [2] (setting [3]) was in the range of 0.101 to 1 µM. Further, in data set [2], the Emax turned out to be 137%. In the same order, the values of `CCc1cc(-c2cc(Oc3cnc4c(F)nn(C)c4c3)ccn2)ccc1C(N)=O` [Example 131, 2-ethyl-4-(4-((3-fluoro-1-methyl-1H-pyrazolo[4,3-b]pyridin-6-yl)oxy)pyridin-2-yl)benzamide] are 0.101 to 1 µM and 114%. In the case of `CCc1cc(-c2cc(Oc3ccc4c(F)nn(C)c4c3)ccn2)ccc1C(N)=O` [Example 132, 2-ethyl-4-(4-((3-fluoro-1-methyl-1H-indazol-6-yl)oxy)pyridin-2-yl)benzamide], the half-maximal effective concentration (EC50) in data set [2] (setting [3]) fell in the range of 0.025 to 0.1 µM. For the same compound, the Emax in data set [2] stood at 110%.

With `CCc1cc(-c2cc(Oc3ccc4c(c3)c(F)nn4C)ccn2)ccc1C(N)=O` [Example 133, 2-ethyl-4-(4-((3-fluoro-1-methyl-1H-indazol-5-yl)oxy)pyridin-2-yl)benzamide], the EC50 in data set [2] (setting [3]) lay within 0.101 to 1 µM. For the same compound, the maximal response (Emax) in data set [2] came out at 141%. In the case of `CCc1cc(-c2cc(Oc3ccc4c(C)nn(C(F)(F)F)c4c3)ccn2)ccc1C(N)=O` [Example 134, 2-ethyl-4-(4-((3-methyl-1-(trifluoromethyl)-1H-indazol-6-yl)oxy)pyridin-2-yl)benzamide], the EC50 in data set [2] (setting [3]) was in the range of 0.101 to 1 µM. Besides, the Emax in data set [2] was 117%. In the case of `Cc1cc(-c2cc(Oc3ccc4c(C)nn(C(F)(F)F)c4c3)ccn2)ccc1C(N)=O` [Example 135, 2-methyl-4-(4-((3-methyl-1-(trifluoromethyl)-1H-indazol-6-yl)oxy)pyridin-2-yl)benzamide], the EC50 in data set [2] (setting [3]) lay in the range of 0.101 to 1 µM. In addition, the Emax in data set [2] turned out to be 115%. Turning to `Cc1cc(-c2cc(Oc3ccc4c(c3)c(C)nn4C)ccn2)ccc1C(N)=O` [drawing 5], the EC50 in data set [2] (comparison of position of the nitrogen in the pyridine ring relative to the oxygen linker, read-out: Activity EC50) was found to be 0.089 µM. As for `Cc1cc(-c2cc(Oc3ccc4cnn(C)c4c3)ccn2)ccc1C(N)=O` [drawing 281], the “Metabolic stability - predicted systemic clearance” value in data set [1] is listed as “Metabolic stability - predicted systemic clearance (example D, above) is 3.6 ml/min/kg”.
